Test results from patent US6136781A, “LH-RH receptor antagonists” (Takeda Chemical Industries, Ltd., priority 1995, dated 2000).
Read-outs that look alike come from different tables or passages of the source.

Details: amide bond, 15-membered ring, DMF
[1] = DIEA (active ester), 0.88 mM, 4 steps
[2] = ONB active ester/DIEA, 1.06 mM, 5 steps

`Cc1ccc(S(=O)(=O)NC(=N)NCCC[C@H]2NC(=O)[C@H](C)NC(=O)[C@H](Cc3c[nH]c4ccccc34)NC(=O)[C@@H](C)NC(=O)[C@H](Cc3ccccc3)NC2=O)cc1` [cyclo(-Ala-D-Arg(Tos)-Phe-D-Ala-Trp-)] showed a ring closure, yield after HPLC (from H-Trp-Ala-dArg(Tos)-Phe-dAla-OH, PyBOP/DIEA, 25.0 °C, 2 steps) of 21.8%.
In the case of `Cc1ccc(S(=O)(=O)NC(=N)NCCC[C@@H]2NC(=O)[C@H](Cc3ccccc3)NC(=O)[C@H](Cc3c[nH]c4ccccc34)NC(=O)[C@@H](C)NC(=O)[C@H](Cc3ccccc3)NC2=O)cc1` [cyclo(-Phe-Arg(Tos)-Phe-D-Ala-Trp-)], the ring closure, yield after HPLC (from H-Trp-Phe-Arg(Tos)-Phe-dAla-OH, PyBOP/DIEA, 25.0 °C, 2 steps) is reported as 71.5%.
`COc1cc(C)c(S(=O)(=O)NC(=N)NCCC[C@H]2NC(=O)[C@H](Cc3ccccc3)NC(=O)[C@H](Cc3c[nH]c4ccccc34)NC(=O)[C@@H](C)NC(=O)[C@H](Cc3ccccc3)NC2=O)c(C)c1C` [cyclo(-Phe-D-Arg(Mtr)-Phe-D-Ala-Trp-)] gave a ring closure, yield after HPLC (from H-dAla-Trp-Phe-dArg(Mtr)-Phe-OH, PyBOP/DIEA, 1.0 mM, 25.0 °C, 2 steps) of 5.8%.
In the case of `Cc1ccc(S(=O)(=O)NC(=N)NCCC[C@H]2NC(=O)[C@H](Cc3ccccc3)NC(=O)[C@H](Cc3c[nH]c4ccccc34)NC(=O)[C@@H](C)NC(=O)[C@H](Cc3ccc4ccccc4c3)NC2=O)cc1` [cyclo(-Phe-D-Arg(Tos)-Nal(2)-D-Ala-Trp-)], the ring closure, yield after HPLC (from H-Trp-Phe-dArg(Tos)-Nal(2)-dAla-OH, PyBOP/DIEA, 25.0 °C, 2 steps) is reported as 15.5%.
For `Cc1ccc(S(=O)(=O)NC(=N)NCCC[C@H]2NC(=O)[C@H](Cc3ccccc3)NC(=O)[C@H](Cc3c[nH]c4ccccc34)NC(=O)[C@@H](C)NC(=O)[C@H](Cc3ccccc3)NC2=O)cc1` [cyclo(-Phe-D-Arg(Tos)-Phe-D-Ala-Trp-)], the ring closure, yield after HPLC (from H-Trp-Phe-dArg(Tos)-Phe-dAla-OH, PyBOP/DIEA, 25.0 °C, 2 steps) was 10.8%.
`Cc1ccc(S(=O)(=O)NC(=N)NCCC[C@H]2NC(=O)[C@H](Cc3ccccc3)NC(=O)[C@H](Cc3c[nH]c4ccccc34)NC(=O)[C@@H](CC(C)C)NC(=O)[C@H](Cc3ccccc3)NC2=O)cc1` [cyclo(-Phe-D-Arg(Tos)-Phe-D-Leu-Trp-)] gave a ring closure, yield after HPLC (from H-dLeu-Trp-Phe-dArg(Tos)-Phe-OH, PyBOP/DIEA, 25.0 °C, 2 steps) of 29.4%.
`Cc1ccc(S(=O)(=O)NC(=N)NCCC[C@H]2NC(=O)[C@H](Cc3ccccc3)NC(=O)[C@H](Cc3c[nH]c4ccccc34)NC(=O)[C@@H](C)NC(=O)[C@H](Cc3ccc(Cl)cc3)NC2=O)cc1` [cyclo(-Phe-D-Arg(Tos)-pClPhe-D-Ala-Trp-)] gave a ring closure, yield after HPLC (from H-Trp-Phe-dArg(Tos)-pClPhe-dAla-OH, PyBOP/DIEA, 25.0 °C, 2 steps) of 50.5%.
With `Cc1ccc(S(=O)(=O)NC(=N)NCCC[C@H]2NC(=O)[C@H](Cc3ccccc3)NC(=O)[C@H](Cc3c[nH]c4ccccc34)NC(=O)[C@@H](C)NC(=O)[C@H](Cc3ccc(F)cc3)NC2=O)cc1` [cyclo(-Phe-D-Arg(Tos)-pFPhe-D-Ala-Trp-)] the ring closure, yield after HPLC (from H-Trp-Phe-dArg(Tos)-pFPhe-dAla-OH, PyBOP/DIEA, 25.0 °C, 2 steps) was 65.6%.
`Cc1ccc(S(=O)(=O)NC(=N)NCCC[C@H]2NC(=O)[C@H](c3ccccc3)NC(=O)[C@H](Cc3ccccc3)NC(=O)[C@@H](C)NC(=O)[C@H](Cc3ccccc3)NC2=O)cc1` [cyclo(-Phg-D-Arg(Tos)-Phe-D-Ala-Phe-)] gave a ring closure, yield after HPLC (from H-Phe-Phg-dArg(Tos)-Phe-dAla-OH, PyBOP/DIEA, 25.0 °C, 2 steps) of 13.1%.
`Cc1ccc(S(=O)(=O)NC(=N)NCCC[C@H]2NC(=O)[C@H](c3ccccc3)NC(=O)[C@H](Cc3c[nH]c4ccccc34)NC(=O)[C@@H](C)NC(=O)[C@H](Cc3ccccc3)NC2=O)cc1` [cyclo(-Phg-D-Arg(Tos)-Phe-D-Ala-Trp-)] gave a ring closure, yield after HPLC (from H-dAla-Trp-Phg-dArg(Tos)-Phe-OH, PyBOP/DIEA, 25.0 °C, 2 steps) of 28.3%.
Work on `Cc1ccc(S(=O)(=O)NC(=N)NCCC[C@H]2NC(=O)[C@H](c3ccccc3)NC(=O)[C@H](Cc3c[nH]c4ccccc34)NC(=O)[C@@H](CO)NC(=O)[C@H](Cc3ccccc3)NC2=O)cc1` [cyclo(-Phg-D-Arg(Tos)-Phe-D-Ser-Trp-)] yielded a ring closure, yield after HPLC (from H-dSer-Trp-Phg-dArg(Tos)-Phe-OH, PyBOP/DIEA, 25.0 °C, 2 steps) of 15.7%.
`Cc1ccc(S(=O)(=O)NC(=N)NCCC[C@H]2NC(=O)[C@H](Cc3ccc(Cl)cc3)NC(=O)[C@H](Cc3c[nH]c4ccccc34)NC(=O)[C@@H](C)NC(=O)[C@H](Cc3ccccc3)NC2=O)cc1` [cyclo(-pClPhe-D-Arg(Tos)-Phe-D-Ala-Trp-)] showed a ring closure, yield after HPLC (from H-Trp-pClPhe-dArg(Tos)-Phe-dAla-OH, PyBOP/DIEA, 25.0 °C, 2 steps) of 7.5%.
`Cc1ccc(S(=O)(=O)NC(=N)NCCC[C@H]2NC(=O)[C@H](Cc3ccc(F)cc3)NC(=O)[C@H](Cc3c[nH]c4ccccc34)NC(=O)[C@@H](C)NC(=O)[C@H](Cc3ccccc3)NC2=O)cc1` [cyclo(-pFPhe-D-Arg(Tos)-Phe-D-Ala-Trp-)] showed a ring closure, yield after HPLC (from H-Trp-pFPhe-dArg(Tos)-Phe-dAla-OH, PyBOP/DIEA, 25.0 °C, 2 steps) of 58.8%.
Work on “cyclo (-Arg-D-Lys (COCH2 CH2 CH2 CH2 CH2 Ph)-Tyr-D-Trp-Leu-)” yielded a ring closure, yield after HPLC (DIEA (active ester), 3.12 mM, 5 steps) of 26.8%.
“cyclo(-Arg-D-Glu((2)-MeOPhp)-Tyr-D-Trp-Leu-)” gave a ring closure, yield after HPLC (DIEA (active ester), 1.07 mM, 4 steps) of 9.2%.
Compound “cyclo(-Arg-D-Glu((2)-Pyp)-Tyr-D-Trp-Leu-)” has a ring closure, yield after HPLC (DIEA (active ester), 1.1 mM, 4 steps) of 12.1%.
“cyclo(-Arg-D-Glu((4)-MeOPhp)-Tyr-D-Trp-Leu-)” showed a ring closure, yield after HPLC (DIEA (active ester), 1.07 mM, 5 steps) of 24.4%.
Compound cyclo(-Arg-D-Glu(Bzlp)-Tyr-D-Trp-Leu-) has a ring closure, yield after HPLC (DIEA (active ester), 1.09 mM, 4 steps) of 21.6%.
Work on “cyclo(-Arg-D-Glu(NHCH2 CH2 Ph)-Asp (NHCH2 Ph)-D-Trp-Leu-)” yielded a ring closure, yield after HPLC (DIEA (active ester), 2.67 mM, 5 steps) of 6.72%.
“cyclo(-Arg-D-Glu(NHCH2 CH2 Ph)-Lys(COPh)-D-Trp-Leu-)” gave a ring closure, yield after HPLC (DIEA (active ester), 3.63 mM, 5 steps) of 57.6%.
With “cyclo(-Arg-D-Glu(NHCH2 CH2 Ph)-Lys(COPh)-D-Trp-Phe-)” the ring closure, yield after HPLC (ONB active ester/DIEA, 1.28 mM, 5 steps) was 5.7%.
In the case of “cyclo(-Arg-D-Glu(NHCH2 CH2 Ph)-Lys(COPh)-D-Trp-Trp-)”, the ring closure, yield after HPLC (ONB active ester/DIEA, 0.93 mM, 5 steps) is reported as 13.9%.
“cyclo(-Arg-D-Glu(NHCH2 CH2 Ph)-Tyr-D-Trp-Leu-)” gave a ring closure, yield after HPLC (DIEA (active ester), 0.9 mM, 4 steps) of 30.9%.
For “cyclo(-Arg-D-Glu(NHCH2 CH2 Ph)-Tyr-D-Trp-Phe-)”, the ring closure, yield after HPLC (ONB active ester/DIEA, 1.08 mM, 5 steps) was 37%.
“cyclo(-Arg-D-Glu(NHCH2 CH2 Ph)-Tyr-D-Trp-Trp-)” gave a ring closure, yield after HPLC (ONB active ester/DIEA, 1.33 mM, 5 steps) of 14.8%.
“cyclo(-Arg-D-Glu(NHCH2 Nap(1))-Tyr-D-Trp-Leu-)” gave a ring closure, yield after HPLC [1] of 56.7%.
For “cyclo(-Arg-D-Glu(NHCH2 Ph)-Tyr-D-Trp-Leu-)”, the ring closure, yield after HPLC (DIEA (active ester), 0.91 mM, 4 steps) was 27.1%.
Compound “cyclo(-Arg-D-Glu(NHCHPh2)-Tyr-D-Trp-Leu-)” has a ring closure, yield after HPLC (DIEA (active ester), 0.86 mM, 4 steps) of 26.1%.
Compound cyclo(-Arg-D-Glu(Php)-Tyr-D-Trp-Leu-) has a ring closure, yield after HPLC [1] of 71.7%.
cyclo(-Arg-D-Lys(Ac)-Tyr-D-Trp-Leu-) gave a ring closure, yield after HPLC (ONB active ester/DIEA, 1.36 mM, 5 steps) of 23.9%.
Work on “cyclo(-Arg-D-Lys(COCH2 CH2 CH2 Ph)-Tyr-D-Trp-Leu-)” yielded a ring closure, yield after HPLC (DIEA (active ester), 3.18 mM, 5 steps) of 28.7%.
In the case of “cyclo(-Arg-D-Lys(COCH2 Ph)-Tyr-D-Trp-Leu-)”, the ring closure, yield after HPLC (ONB active ester/DIEA, 0.89 mM, 5 steps) is reported as 30.6%.
With cyclo(-Arg-D-Lys(CoPh)-Tyr-D-Trp-Leu-) the ring closure, yield after HPLC (ONB active ester/DIEA, 2.62 mM, 5 steps) was 32.7%.
In the case of “cyclo(-Arg-D-Lys(SO2 Nap(1))-Tyr-D-Trp-Leu-)”, the ring closure, yield after HPLC [2] is reported as 30%.
Compound “cyclo(-Arg-D-Lys(SO2 Nap(2))-Trp-D-Trp-Leu-)” has a ring closure, yield after HPLC (HONB/DCC preactivation, DIEA, 2.47 mM, 5 steps) of 27.1%.
For cyclo(-Arg-D-Lys-Tyr-D-Trp-Leu-), the ring closure, yield after HPLC (HONB/DCC preactivation, DIEA, 0.94 mM, 5 steps) was 11.7%.
Work on cyclo(-Arg-D-Trp-Tyr-D-Trp-Leu-) yielded a ring closure, yield after HPLC (HONB/DCC preactivation, DIEA, 1.01 mM, 5 steps) of 11.5%.
With cyclo(-Arg-Glu(Php)-Tyr-D-Trp-Leu-) the ring closure, yield after HPLC (DIEA (active ester), 1.1 mM, 5 steps) was 22.7%.
Work on “cyclo(-Arg-Lys(SO2 Nap(2))-Tyr-D-Trp-Leu-)” yielded a ring closure, yield after HPLC [2] of 48.3%.
In the case of “cyclo(-D-Leu-Lys(SO2 Nap(1))-D-Tyr-Arg-D-Trp-)”, the ring closure, yield after HPLC (ONB active ester/DIEA, 3.3 mM, 5 steps) is reported as 52.2%.
In the case of “cyclo(-D-Tyr-Arg-D-Trp-Leu-D-Lys(SO2 Nap(1))-)”, the ring closure, yield after HPLC (DIEA (active ester), 3.28 mM, 5 steps) is reported as 54.3%.
Work on “cyclo(-Leu-D-Arg-Lys(SO2 Nap(1)-D-Tyr-Trp-)” yielded a ring closure, yield after HPLC (DIEA, 1.1 mM, 5 steps) of 21.1%.
In the case of “cyclo(-Lys(isopropyl)-D-Glu(NHCH2 CH2 Ph)-Tyr-D-Lys(Nic)-Leu-)”, the ring closure, yield after HPLC (ONB active ester/DIEA, 1.19 mM, 5 steps) is reported as 44.3%.
For cyclo(-Lys-D-Glu(Php)-Tyr-D-Trp-Leu-), the ring closure, yield after HPLC (DIEA (active ester), 1.11 mM, 5 steps) was 23.5%.
